Data as given in US8592456B2 (4SC Discovery GmbH, priority 2011, dated 2013).

system: PBMC (T cell proliferation); test: T cell proliferation assay, PHA-stimulated human PBMC (BrdU ELISA); assay type: cell-based; settings: PHA-stimulated human PBMC, 48 hours, BrdU; column D; activity classes 1-4; read-out: IC50 (Tcell proliferation)
Protocol: Cell proliferation was analysed using the BrdU based cell proliferation ELISA from Roche (Mannheim, Germany) according to the manufacturer's instructions.
T Cell Proliferation Assay
Peripheral blood mononuclear cells (PBMC) from healthy human donors were isolated by centrifugation over Ficoll-Hypaque (Sigma-Aldrich, Germany) according to manufacturer's instructions. Purified PBMC were washed twice with PBS and resuspended in RPMI1640 culture medium supplemented with 10% dialyzed heat inactivated fetal calf serum, 1.5 mM L-glutamine, 100 U penicillin/ml, and […] (all from PAN Biotech, Aidenbach, Germany). For stimulation, PBMC were seeded at 1×10^5 cells/well, activated with 2 μg/ml phytohaemagglutinin (PHA, Sigma) and incubated with the test compound. After 48 hours proliferation was measured using the BrdU based cell proliferation ELISA from Roche (Mannheim, Germany) according to the manual.

Structure (SMILES)	IC50 [nM]
Cc1nnc(-c2c(-c3c(F)cccc3Cl)noc2-c2cnn(-c3ccccc3F)c2C(F)(F)F)s1 [Example I-12, 3-(2-chloro-6-fluorophenyl)-5-(1-(2-fluorophenyl)-5-(trifluoromethyl)-1H-pyrazol-4-yl)-4-(5-methyl-1,3,4-thiadiazol-2-yl)isoxazole]	100 to 1000
Cc1nnc(-c2c(-c3c(F)cccc3Cl)noc2-c2cnn(-c3cccc(Cl)c3)c2C(F)(F)F)s1 [IB-3, 3-(2-chloro-6-fluorophenyl)-5-(1-(3-chlorophenyl)-5-(trifluoromethyl)-1H-pyrazol-4-yl)-4-(5-methyl-1,3,4-thiadiazol-2-yl)isoxazole]	< 10
CCOC(=O)c1csc(-c2c(-c3c(F)cccc3Cl)noc2-c2cnn(-c3cccc(F)c3)c2C(F)(F)F)n1 [IB-1, ethyl 2-{3-(2-chloro-6-fluorophenyl)-5-[1-(3-fluorophenyl)-5-(trifluoromethyl)-1H-pyrazol-4-yl]isoxazol-4-yl}-1,3-thiazole-4-carboxylate]	100 to 1000
COC(=O)c1csc(-c2c(-c3c(F)cccc3Cl)noc2-c2cnn(-c3cccc(F)c3)c2C(F)(F)F)n1 [IB-2, methyl 2-{3-(2-chloro-6-fluorophenyl)-5-[1-(3-fluorophenyl)-5-(trifluoromethyl)-1H-pyrazol-4-yl]isoxazol-4-yl}-1,3-thiazole-4-carboxylate]	100 to 1000
NS(=O)(=O)c1cccc(-n2ncc(-c3onc(-c4c(F)cccc4Cl)c3-c3nnco3)c2C(F)(F)F)c1 [IB-17, 3-(4-(3-(2-chloro-6-fluorophenyl)-4-(1,3,4-oxadiazol-2-yl)isoxazol-5-yl)-5-(trifluoromethyl)-1H-pyrazol-1-yl)benzenesulfonamide]	1000 to 10000
Fc1cccc(Cl)c1-c1noc(-c2cnn(-c3cccc(Cl)c3)c2C(F)(F)F)c1-c1nnn[nH]1 [Example I-3, 3-(2-chloro-6-fluorophenyl)-5-(1-(3-chlorophenyl)-5-(trifluoromethyl)-1H-pyrazol-4-yl)-4-(1H-tetrazol-5-yl)isoxazole]	1000 to 10000
Fc1cccc(Cl)c1-c1noc(-c2cnn(-c3cccnc3)c2C(F)(F)F)c1-c1nnco1 [IB-15, 2-(3-(2-chloro-6-fluorophenyl)-5-(1-(pyridin-3-yl)-5-(trifluoromethyl)-1H-pyrazol-4-yl)isoxazol-4-yl)-1,3,4-oxadiazole]	100 to 1000

same assay, conditions: human PBMC, 2 μg/ml PHA, 48 hours, BrdU; read-out: D: IC50 (Tcell proliferation)

Structure (SMILES)	IC50 [nM]
CCOC(=O)c1c(-c2ccccc2F)noc1-c1cnn(-c2cccc(F)c2)c1C(F)(F)F [Example 90, ethyl 3-(2-fluorophenyl)-5-(1-(3-fluorophenyl)-5-(trifluoromethyl)-1H-pyrazol-4-yl)isoxazole-4-carboxylate]	100 to 1000
COC(=O)c1c(-c2c(F)cccc2Cl)noc1-c1cnn(-c2cccc(C#N)c2)c1C(F)(F)F [Example 12, methyl 3-(2-chloro-6-fluorophenyl)-5-(1-(3-cyanophenyl)-5-(trifluoromethyl)-1H-pyrazol-4-yl)isoxazole-4-carboxylate]	10 to 100
CSC(=O)c1c(-c2c(F)cccc2Cl)noc1-c1cnn(-c2ccccc2F)c1C(F)(F)F [Example 130, S-methyl 3-(2-chloro-6-fluorophenyl)-5-(1-(2-fluorophenyl)-5-(trifluoromethyl)-1H-pyrazol-4-yl)isoxazole-4-carbothioate]	< 10
CCOC(=O)c1c(-c2c(F)cccc2Cl)noc1-c1cnn(-c2ccc(NC(C)=O)cc2)c1C(F)(F)F [Example B-99, ethyl 5-(1-(4-acetamidophenyl)-5-(trifluoromethyl-1H-pyrazol-4-yl)-3-(2-chloro-6-fluorophenyl)isoxazole-4-carboxylate]	1000 to 10000
COC(=O)c1c(-c2c(F)cccc2Cl)noc1-c1cnn(-c2ncc(C(F)(F)F)cc2Cl)c1C(F)(F)F [Example 87]	1000 to 10000
CSC(=O)c1c(-c2c(F)cccc2Cl)noc1-c1cnn(-c2cccnc2)c1C(F)(F)F [Example B-68, S-methyl 3-(2-chloro-6-fluorophenyl)-5-(1-(pyridin-3-yl)-5-(trifluoromethyl)-1H-pyrazol-4-yl)isoxazole-4-carbothioate]	10 to 100
CCOC(=O)c1c(-c2c(F)cccc2Cl)noc1-c1cnn(CCOC)c1C(F)(F)F [Example B-2, ethyl 3-(2-chloro-6-fluorophenyl)-5-(1-(2-methoxyethyl)-5-(trifluoromethyl)-1H-pyrazol-4-yl)isoxazole-4-carboxylate]	1000 to 10000
CCOC(=O)c1c(-c2ccc(Cl)cc2Cl)noc1-c1cnn(-c2cccc(F)c2)c1C(F)(F)F [Example 112, ethyl 3-(2,4-dichlorophenyl)-5-(1-(3-fluorophenyl)-5-(trifluoromethyl)-1H-pyrazol-4-yl)isoxazole-4-carboxylate]	100 to 1000
CC(=O)Nc1c(-c2c(F)cccc2Cl)noc1-c1cnn(-c2cccc(Cl)c2)c1C(F)(F)F [Example B-39, N-(3-(2-chloro-6-fluorophenyl)-5-(1-(3-chlorophenyl)-5-(trifluoromethyl)-1H-pyrazol-4-yl)-isoxazol-4-yl)acetamide]	1000 to 10000
CN1CCN(C(=O)c2c(-c3c(F)cccc3Cl)noc2-c2cnn(-c3ccccc3F)c2C(F)(F)F)CC1 [Example 17, (3-(2-chloro-6-fluorophenyl)-5-(1-(2-fluorophenyl)-5-(trifluoromethyl)-1H-pyrazol-4-yl)isoxazol-4-yl)(4-methylpiperazin-1-yl)methanone]	1000 to 10000
CCOC(=O)c1c(-c2c(F)cccc2Cl)noc1-c1cnn(CCN2CCOCC2)c1C(F)(F)F [Example B-97, ethyl 3-(2-chloro-6-fluorophenyl)-5-(1-(2-morpholinoethyl)-5-(trifluoromethyl)-1H-pyrazol-4-yl)isoxazole-4-carboxylate]	1000 to 10000
NC(=O)c1c(-c2c(F)cccc2Cl)noc1-c1cnn(-c2cccc(Cl)c2)c1C(F)(F)F [Example 121, 3-(2-chloro-6-fluorophenyl)-5-(1-(3-chlorophenyl)-5-(trifluoromethyl)-1H-pyrazol-4-yl)isoxazole-4-carboxamide]	1000 to 10000
CNC(=O)c1c(-c2ccccc2Cl)noc1-c1cnn(-c2cccc(F)c2)c1C(F)(F)F [Example 96, 3-(2-chlorophenyl)-5-(1-(3-fluorophenyl)-5-(trifluoro-methyl)-1H-pyrazol-4-yl)-N-methylisoxazole-4-carboxamide]	100 to 1000
CNC(=O)c1c(-c2ccccc2Cl)noc1-c1cnn(-c2cccc(Cl)c2)c1C(F)(F)F [Example B-63, 3-(2-chlorophenyl)-5-(1-(3-chlorophenyl)-5-(trifluoromethyl)-1H-pyrazol-4-yl)-N-methylisoxazole-4-carboxamide]	100 to 1000
COC(=O)c1c(-c2c(F)cccc2Cl)noc1-c1cnn(-c2ccccc2F)c1 [Example 89, Methyl 3-(2-chloro-6-fluorophenyl)-5-[1-(2-fluorophenyl)-1H-pyrazol-4-yl]isoxazole-4-carboxylate]	100 to 1000
CCOC(=O)c1c(-c2c(F)cccc2Cl)noc1-c1cnn(Cc2ccccc2F)c1C(F)(F)F [Example B-80, ethyl 3-(2-chloro-6-fluorophenyl)-5-(1-(2-fluorobenzyl)-5-(trifluoromethyl)-1H-pyrazol-4-yl)isoxazole-4-carboxylate]	1000 to 10000
CCOC(=O)c1c(-c2c(F)cccc2Cl)noc1-c1cnn(-c2cccc(NC(C)=O)c2)c1C(F)(F)F [Example B-70, ethyl 5-(1-(3-acetamidophenyl)-5-(trifluoromethyl)-1H-pyrazol-4-yl)-3-(2-chloro-6-fluorophenyl)isoxazole-4-carboxylate]	10 to 100
